The values below are quoted from earlier work in US9023395B2, “Formulation of active agent loaded activated PLGA nanoparticles for targeted cancer nano-therapeutics” (University of North Texas Health Science Center at Fort …, priority 2007, dated 2015).

The conditions of the series: for Solubility: solvent in which the linker is soluble.

Each structure is given as a SMILES string.

Take `O=C(CCCC(=O)ON1C(=O)CCC1=O)ON1C(=O)CCC1=O` [DSG, Disuccinimidyl glutarate]: the water solubility entry was “water insoluble” and the Solubility result was “DMSO”.
`CCCCCCCCCCCCCCCC(=O)ON1C(=O)CCC1=O` [PAS, Palmitic acid N- hydroxysuccin- imide ester]: the Solubility result is “DMSO”.
For the compound `O=C(CCN1C(=O)C=CC1=O)ON1C(=O)CCC1=O` [BMPS, N-[b-maleimidopropyl-oxy] succinimide ester], the water solubility result was “water insoluble” and the Solubility entry was “DMSO”.
